Results as given in PMC8758724, “Molecular mechanism of agonism and inverse agonism in ghrelin receptor” (Nature Communications, 2022).
“Also recorded” adds a separate entry of the source.

Legend:
[1] = tested on: ghrelin receptor; details: cited from earlier work
Text: (50% activity independent of the endogenous ligand ghrelin). The ghrelin receptor exerts a wide range of physiological functions, including appetite regulation, alcohol consumption, adipocyte metabolism, and glucose homeostasis[11]–[14], due to its broad distribution and multiple signaling pathways through divergent G-protein coupling or β-arrestin recruitment. The endogenous agonist ghrelin is a 28-amino acid peptide secret ...

[2] = tested on: ghrelin receptor mutants; assay: IP1 accumulation, ghrelin receptor mutants, HEK293 cells, 37 °C 2 h (compound 21 containing 10 nM ghrelin); assay type: cell-based, human
Text: Fig. 2 The binding mode of PF-05190457 with the ghrelin receptor. a The detailed binding mode of PF-05190457 in the orthosteric pocket of the ghrelin receptor. The |Fo| − |Fc| omit map (contoured at 3.0 σ) for PF-05190457 (shown as marine blue sticks). […] The diazaspiro core is shown in pink, arm-1 is sky blue, and arm-2 is light green. The red solid lines indicate hydrogen bonds involved in interactions with the side chains of key residues. d–f Key residues of the ghrelin receptor (wheat sticks) involved in ligand binding in cavity III (d), cavity I (e), and cavity IV (f). The binding pocket is highly hydrophobic, and the particular polar network is shown as black dotted lines. g IP1 accumulation induced by the inverse agonist PF-05190457 and antagonist compound 21. Bars represent the difference in the calculated potency (pIC50) of the inverse agonist for mutations relative to the WT ghrelin receptor. Data are colored according to extent of effect. nd not detected, **P < 0.01, ***P < 0.001 (one-way analysis of variance (ANOVA) followed by Dunnett’s test, compared with the response of WT, P < 0.001, P < 0.001, P < 0.001, P > 0.999, nd, nd, P = 0.05, nd, P < 0.001, P < 0.001, nd, nd, nd, nd, nd, nd, P < 0.01, P = 0.264, P < 0.001, nd, P < 0.001, nd from left to right). Data represent the mean ± SEM from n = 3 biologically independent experiments performed in triplicate. […] The salt bridges between E124^3.33 and R283^6.55 as well as between R102^2.63 and Q120^3.29, are broken upon PF-05190457 binding.
To measure the activity of inverse agonist PF-05190457 (Tocris, Cat. No. 6350), we carried out IP1 accumulation assays for ghrelin receptor independent of agonist. The agonist ghrelin and antagonist compound 21 were also performed as the control. The cDNA of ghrelin receptor subcloned into pcDNA3.1(+) expression vector with a HA signal sequence followed by a Flag tag at the N-terminus. Point mutations used in our study were generated by using Q5 site-Directed Mutagenesis kit (NEB). All the constructs were verified by sequencing. The constructs were expressed in HEK293 cells using PEI transfection reagent (YEASEN, 40815es03) according to the manufacturer’s instruction. Cells were harvested 48 h post transfection.
IP accumulation was measured using Cisbio IP1 assay kit (Cisbio, 62IPAPEB), which has been previously described. In brief, the harvested cells were distributed in a low volume 96-well dish and stimulated with increased concentration of inverse agonist PF-05190457, agonist ghrelin peptide or antagonist compound 21 containing 10 nM ghrelin peptide at 37 °C for 2 h. After that, d2-labeled IP1 and cryptate-labeled anti-IP1 monoclonal antibody dissolved in Lysis Buffer were added to the wells. After 1 h incubation at room temperature. IP1 was quantified using Synergy H1 microplate reader (BioTek) with excitation at 320 nm, emission at 620 nm, and 665 nm. The accumulation of IP1 was calculated according to a standard dose–response curve in GraphPad Prism 8 (GraphPad Software). Data were represented as the mean ± SEM from three independent experiments and all experiments were repeated at least three times.
Supplementary Fig. 6: IP1 accumulation assay.
(a) Expression level of the ghrelin receptor mutants. Data represent the mean ± SEM from three independent experiments performed in triplicate. ns, not significant, **p < 0.01, ***p < 0.001 (one-way analysis of variance [ANOVA] followed by Dunnett’s test, compared with the response […]
0.001, p=0.996, p=0.008, p=0.999 from left to right). Data represent the mean ± SEM from n=3 biologically independent experiments performed in triplicate.
(b) IP1 accumulation measurement induced by inverse agonist PF-05190457(left), agonist ghrelin (middle) and antagonist compound 21 (right). ns, not significant; nd, not detected; ***p < 0.001 […]
< 0.001, nd, nd, nd, p=0.264, nd, nd from left to right). Data represent the mean ± SEM from […]

[3] = tested on: ghrelin receptor; details: cited from earlier work; remark: listed apart in the source
Text: The ghrelin receptor is activated by endogenous ghrelin peptide and contains constitutive activity as ~50% of the maximal activity in the absence of ghrelin peptide.

[4] = tested on: wild-type ghrelin receptor; assay: IP1 accumulation, wild-type ghrelin receptor, HEK293 cells, 37 °C 2 h, Cisbio IP1 kit; assay type: cell-based, human; details: WT
Procedure: Fig. 1 Overall structures of ghrelin receptors bound to inverse agonist and agonist. a Dose-dependent responses of endogenous agonist ghrelin, inverse agonist PF-05190457 and antagonist compound 21 containing 10 nM ghrelin peptide at wild-type ghrelin receptor measured by cellular IP1 accumulation assays. […] Data represent the mean ± SEM from n = 3 biologically independent experiments performed in triplicate. b View from within the plane of the membrane. The inverse agonist-bound ghrelin receptor is represented as a wheat cartoon, and PF-05190457 is shown as a marine blue sphere. Cryo-EM structure of the agonist ghrelin-bound ghrelin receptor-Gαo1-scFv16 complex. c Ghrelin peptides and receptors are shown as deep salmon spheres and aquamarine cartoons, respectively. The Go heterotrimer and scFv16 are shown in the gray cartoon. d View from the extracellular side of the membrane. […]
IP accumulation was measured using Cisbio IP1 assay kit (Cisbio, 62IPAPEB), which has been previously described. […] IP1 was quantified using Synergy H1 microplate reader (BioTek) with excitation at 320 nm, emission at 620 nm, and 665 nm. The accumulation of IP1 was calculated according to a standard dose–response curve in GraphPad Prism 8 (GraphPad Software). […]

Compound: unacylated form of ghrelin: unacylated form of ghrelin (GSSFLSPEHQRVQQRKESKKPPAKLQPR; Ghrelin-28 unacylated; UniProt Q9UBU3 24-51, looked up)
- activation of the ghrelin receptor [1]: does not bind or activate the ghrelin receptor at all
- binding to the ghrelin receptor [1]: does not bind

Compound: Cc1nc2ccc(Oc3ccc(Br)cc3F)nc2c(=O)n1C[C@H]1CCCN(C(C)C)C1 [compound 21]
- potency, effect of mutation ([2]; F279^6.51A): impaired the potency
- potency, effect of mutation ([2]; F312^7.42A): impaired the potency
- potency, effect of mutation ([2]; W276^6.48A): impaired the potency
- effect on constitutive activity of the ghrelin receptor [3]: had no effect on the constitutive activity of the ghrelin receptor

Compound: Cc1cc(-c2ccc3c(c2)CC[C@H]3N2CC3(CCN(C(=O)Cc4cn5cc(C)sc5n4)CC3)C2)ncn1 [PF-05190457]
- inverse agonism potency, effect of mutation ([2]; D99^2.60A): significantly reduced the potency of inverse agonism
- inverse agonism potency, effect of mutation ([2]; E124^3.33A): impaired the inverse agonism potency
- inverse agonism potency, effect of mutation ([2]; F119^3.28A): essential for the inverse agonism potency
- inverse agonistic activity, effect of mutation ([2]; F279^6.51A): significantly reduced the inverse agonistic activity; also recorded: significantly reduced the potency of inverse agonism
- inverse agonistic activity, effect of mutation ([2]; F312^7.42A): significantly reduced the inverse agonistic activity; also recorded: significantly reduced the potency of inverse agonism
- inverse agonism potency, effect of mutation ([2]; Q120^3.29A): essential for the inverse agonism potency
- inverse agonism potency, effect of mutation ([2]; R283^6.55A): impaired the inverse agonism potency
- inverse agonism potency, effect of mutation ([2]; S308^7.38A): decreased the inverse agonism potency
- inverse agonistic activity, effect of mutation ([2]; W276^6.48A): significantly reduced the inverse agonistic activity; also recorded: significantly reduced the potency of inverse agonism
- effect on constitutive (basal) activity of the ghrelin receptor [4]: functions as an inverse agonist to significantly reduce basal activity; also recorded: significantly reduced
